Values quoted from earlier work as cited in patent US20250214928A1 (priority 2023, published 2025).

Legend:
[1] = tested on: tumor-specific antigens (CEA, CA 19/9, CA 125, prostate-specific antigen); details: meta-analysis of phase I/II trials, over 400 patients, dose-dependent, ref. [9]
[2] = tested on: kainic acid-induced status epilepticus model; details: mouse study, ref. [5]

SMILES: CNC(=O)[C@@H](NC(=O)[C@H](CC(C)C)[C@H](O)C(=O)NO)C(C)(C)C [marimastat, (2R,3S)-N-1-((S)-3,3-dimethyl-1-methylamino-1-oxobutan-2-yl)-N-4,3-dihydroxy-2-isobutylsuccinamide]
- growth indicators of tumor-specific antigens (all four) [1]: significantly reduced
- duration of seizures [2]: reduced
- number of seizures [2]: reduced
